Assay results as given in publication PMC6010545, “Identification of a Novel Polyamine Scaffold With Potent Efflux Pump Inhibition Activity Toward Multi-Drug Resistant Bacterial Pathogens” (Frontiers in Microbiology, 2018).
Where two headings read alike, the source gives them in different places.

Tests used:
[1] = system: tetracycline-resistant P. aeruginosa isolate 1419; test: Checkerboard potentiation assay with tetracycline; format: cell-based, Pseudomonas aeruginosa
Protocol: Scaffold ranking library samples and individual polyamines were screened using checkerboard inhibitory assays to assess the potentiation of tetracycline and chloramphenicol. The test utilized a 96-well plate microtiter assay where the concentration of the scaffold or individual polyamine was decreased from 25 to 0.8 μg mL^-1 (average molarity of mixture samples 65 to 4 μM) along the rows, and the concentration of tetracycline or chloramphenicol was increased from 0.4 to 100 μM across the columns. […] However, with the known antibiotics, we report EC90 values in μM, which more accurately describes purified compounds. Plates were incubated statically at 37°C for 20 h, and the optical density (OD600) was determined using a Synergy 2 plate reader (BioTek). Potentiation modeling (detailed below) was performed to determine fold change in the 50 and 90% effective concentration of tetracycline or chloramphenicol.
Potentiation was quantified using a mathematical model developed by our group to assess the ability of library samples and individual compounds to effectively enhance the activity of tetracycline or chloramphenicol ([Hoel, 1987]). […] In this way, only libraries and compounds that potentiated tetracycline or chloramphenicol activity were pursued. The model is based on the following equation for modeling the percentage activity of a mixture of two agents with independent action ([Hoel, 1987]):
%Antibiotic & Comp(X1,X2)=%Antibiotic(X1)+%Comp(X2)−%Antibiotic(X1)⋅%Comp(X2)
Here, x1 and x2 are the concentrations of antibiotic (tetracycline or chloramphenicol) and library/compound (Comp) tested, respectively. This equation can be rearranged to model the effective percent activity (EC) of the antibiotic alone, after accounting for compound activity:
Eff%Antibiotic(X1)=%Antibiotic & Compound(X1,X2)−%Compound(X2)/1−%Compound(X2)
Thus, the model-adjusted checkerboards show the antibiotic activity post-potentiation, and from that one can determine the true change in Mic.

A. baumannii (1643) = test: Potentiation of levofloxacin; format: cell-based; conditions: increasing polyamine concentration
[2] = system: P. aeruginosa proficient (1419) and deficient (1418) strain; test: Aztreonam combination testing in efflux proficient and deficient strains; format: cell-based; conditions: strain 1419 (efflux proficient); polyamine 12.5 μg mL^-1, ½ X MIC aztreonam
Protocol: FIGURE 6 Confirming efflux pump inhibition by polyamines using efflux deficient strains. (A) A P. aeruginosa proficient (1419) and deficient (1418) strain were subjected to combination testing of the polyamines at 12.5 μg mL^-1 and ½ X MIC of aztreonam. Fold potentiation was calculated by dividing the CFU mL^-1 for aztreonam only by the CFU mL^-1 of the combined treatment groups. (B) Lead polyamine 247 was assessed for its ability to potentiate the activity of chloramphenicol toward S. aureus strain United States 300 and its norA mutant. Shown is the potentiated chloramphenicol EC90 calculated as described in A. Error bars are shown ± SEM.

MTT cytotoxicity assay = format: cell-based; conditions: human, 25 μg mL^-1, 48 h, read-out: percent recovery (cell viability)
Protocol: To assess toxicity of polyamine compounds we used HepG2 human liver carcinoma cells and Hek293T human embryonic kidney epithelial cells. The viability of cell lines was determined using a 3-(4,5-dimethylthiazol-2-yl)-2,5-diphenyltetrazolium bromide (MTT) molecular probe as previously described by our group ([Fleeman et al., 2015]). Briefly, 247, 266, 271 (Hek293T), or 250, 271, 314 (HepG2), alongside control efflux pump inhibitor PaβN, were diluted in 10% DMF from 25 μg mL^-1 to 3 μg mL^-1 using twofold dilutions, before being added to cells in DMEM with 10% FBS and 1% penicillin/streptomycin. Cells were then incubated for 48 h at 37°C with 5% CO2. Following this, viability was assessed by the addition of MTT and measuring the OD570 in a Biotek plate reader. Percent recovery was determined compared to no drug controls.

With `NCCC[C@H](CN)NC[C@H](Cc1ccccc1)NCCc1ccccc1` [compound 271] the “FP* (fold potentiation of tetracycline EC50)” value ([1]; 25 µg ml-1 TPI, EC50 tetracycline no TPI / with TPI) was 8.2 fold, the “FP# (fold potentiation of tetracycline EC90)” value ([1]; 25 µg ml-1 TPI, EC90 tetracycline no TPI / with TPI) was 8.5 fold and the “FP* (fold potentiation of tetracycline EC50)” value ([1]; EC50 tetracycline without EPI / with EPI) was 8.2 fold. For the same compound, the “FP# (fold potentiation of tetracycline EC90)” value ([1]; EC90 tetracycline without EPI / with EPI) was 8.5 fold, the EC50 ([1]; Pseudomonas aeruginosa, 20 h, inhibitor alone, 25 μg mL^-1 highest concentration tested, * = EC50, read-out: EPI* (inhibitory concentration of efflux pump inhibitor alone)) was > 25 µg/mL and the “TPI (inhibitory concentration of polyamine alone)” value ([1]; polyamine alone, 25 µg ml-1 highest tested) was > 25 µg/mL. The potentiation of levofloxacin (A. baumannii (1643)) was “dose response curve of antibiotic potentiation”, the potentiation of aztreonam [2] was “best potentiators of aztreonam” and the recovery at 48 h, 25 μg mL^-1 (MTT cytotoxicity assay; Hek293T human embryonic kidney epithelial cells, vs solvent only controls) was 75%. The recovery at 48 h, 25 μg mL^-1 (MTT cytotoxicity assay; HepG2 human liver carcinoma cells) was 74%.
